≈ marks a conversion by molar mass, not a printed value. Values belong to the molecule of their own block, whether it stands above or below them.
Columns and labels:
[1] = tested on: phospho-Ser473-AKT in HT-29 cells; experiment: Cellular AKT inhibition, Western blot phospho-Ser473-AKT, HT-29 cells; type: cell-based; conditions: human HT-29 colon cancer cells
Procedure: (§1) AKT inhibition leads to cellular apoptosis.
(§2) AKT activity was measured by Western blotting using anti-[…] AKT antibody. Downstream targets of AKT were detected also by Western blotting using specific anti-phospho antibodies and anti-actin was used as a loading control.

[2] = tested on: phospho-Ser473 AKT in NIH3T3 cells; experiment: Cellular AKT inhibition, phospho-Ser473 AKT, NIH3T3 cells; type: cell-based; conditions: mouse NIH3T3, phospho-Ser473 AKT
Procedure: as §2

[3] = tested on: HT-29 colon cancer xenografts; experiment: Antitumor activity, HT-29 colon cancer xenografts; type: in vivo, scid mice; conditions: orally for 5 days, daily dose 250 mg/kg
Procedure: (§3) AKT and phospo-Ser-AKT values are the mean of 4 mice and bars are S.E., *p<0.05, **p<0.01. Additionally, 24 hours after administration there was an unexpected significant decrease in the apparent total AKT concentration compared to an actin loading control.

[4] = tested on: phospho-Ser-AKT in HT-29 xenograft tumors; experiment: Tumor phospho-Ser-AKT in HT-29 xenografts; type: in vivo, scid mice
Procedure: as §3

[5] = Pharmacokinetics of compound 316, plasma concentrations
HT-29 cells [6] = experiment: Cell survival / cytotoxicity, MTT assay, HT-29 cells; type: cell-based, human; conditions: HT-29 cells; NI = not inhibitory; read-out: Cytotoxicity (IC50 μM)
PH domain of PDK1 = PH domain of PDK1 (Homo sapiens (Human), UniProt O15530); experiment: SPR direct binding to PDK1 PH domain; conditions: NB = no measurable binding, read-out: PDK1 PH mKD
PH domain of PDK1, sequence (O15530 459-550): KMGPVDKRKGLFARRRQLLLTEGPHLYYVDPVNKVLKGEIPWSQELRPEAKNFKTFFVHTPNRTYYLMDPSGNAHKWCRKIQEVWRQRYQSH
Procedure: (§4) Binding assays using SPR and an ELISA competitive binding assay were used to measure the binding affinity (KD) of the compounds to all three PH domains. SPR was carried out as described above. […] Purified GST-PH domains were incubated with increasing concentrations of the compounds under anylsis for about 4 hours in 0.2 M carbonate buffer pH 9.4 and were added to the 96-well plate and incubated overnight at 4° C. Following incubation, the plate was washed 4 times with phosphate buffered 0.9% NaCl (PBS), blocked with 3% bovine serum albumin (BSA) in PBS and 0.01% Tween for 1 hour, washed again 4 times with PBS and mouse monoclonal anti-glutathione-S-transferase antibody in 3% BSA (1:2000) was added for 1 hr at room temperature with shaking. The plate was washed 4 times with PBS and an anti-mouse IgG horseradish peroxidase coupled antibody (dilution 1:2000 in 3% BSA) was added for 1 hr. After 4 washes with PBS, 2,2′-azinobis[3-ethylbenzothiazoline-6-sulfonic acid]-diammonium salt (ABST) was added and the reaction was allowed to develop for 30 min.

HT-29 cells [7] = experiment: Metabolic stability under cell culture conditions (incubation with HT-29 cells); type: in vitro ADME, human; conditions: for Metabolic half life: incubating with HT-29 cells at maximum DMEM concentration at 37° C.
Description: Compound 6 was too insoluble to obtain data.

Solubility = type: physicochemical
[8] = tested on: BXPC3 pancreatic tumor cells, MCF-7 breast tumor cells, and A549 nscl lung cancer cells; experiment: Antitumor activity of alkyl chain analogs in subcutaneous xenografts (FIG. 9); type: in vivo; conditions: 200 mg/kg twice a day for 10 days
IRS1 PH domain = IRS1 PH domain (Homo sapiens (Human), UniProt P35568); experiment: SPR direct binding to IRS1 PH domain; conditions: NB = no measurable binding, read-out: IRS1 PH mKD
IRS1 PH domain, sequence (P35568 12-115): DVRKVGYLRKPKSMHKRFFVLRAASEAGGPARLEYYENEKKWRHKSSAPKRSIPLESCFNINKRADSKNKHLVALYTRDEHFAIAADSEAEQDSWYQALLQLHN
Procedure: as §4

[9] = tested on: phospho-Ser473-AKT in BxPC-3; experiment: Cellular AKT inhibition, Western blot phospho-Ser473-AKT, BxPC-3 cells; type: cell-based, human; conditions: BxPC-3 cells, Western blot
[10] = tested on: Panc-1 pancreatic cell line; experiment: Apoptosis, morphological assay, Panc-1 cells; type: cell-based, human; conditions: Panc-1, morphological assay
Description: as §1

[11] = tested on: MiaPaca-2 pancreatic cell line; experiment: Apoptosis, morphological assay, MiaPaCa-2 cells; type: cell-based, human; conditions: MiaPaca-2, morphological assay
Description: as §1

[12] = Plasma levels of compound 104 (HPLC); type: in vivo, scid mice; conditions: single 125 mg/kg i.p. dose, between 1 and 6 h
Procedure: (§5) This observation was tested using pharmacodynamic and pharmacokinetic studies. […]. […] Western blotting was performed as described above. […].

[13] = type: in vivo; conditions: single doses up to 250 mg/kg; preliminary studies
Procedure: as §5

BxPC-3 pancreatic cancer = experiment: Antitumor activity, oral dosing, BxPC-3 xenograft; type: in vivo, scid mice; conditions: BxPC-3, oral
PC3 prostate cancer = experiment: Antitumor activity, oral dosing, PC3 xenograft; type: in vivo, scid mice; conditions: 125 mg/kg BID × 5 D
SKOV-3 ovarian cancer = experiment: Antitumor activity, oral dosing, SKOV-3 xenograft; type: in vivo, scid mice; conditions: SKOV-3, oral, 250 mg/kg BID × 10 D
A549 nsc lung cancer = experiment: Antitumor activity, oral dosing, A549 xenograft; type: in vivo, scid mice; conditions: 200 mg/kg BID × 10 D
MCF-7 breast cancer = experiment: Antitumor activity, oral dosing, MCF-7 xenograft; type: in vivo, scid mice; conditions: MCF-7, oral
HaCaT cells = experiment: Apoptosis (PARP cleavage), HaCaT cells; type: cell-based, human; conditions: 10 μM
Description: (§6) Normal morphogenesis and differentiation features of skin keratinocytes are retained in the HaCaT cultures.

HaCat-II,4 cells = experiment: Apoptosis (PARP cleavage), HaCaT-II,4 cells; type: cell-based, human; conditions: 10 μM
Description: as §6

[14] = tested on: total AKT in scid mouse skin; experiment: Topical application, total AKT immunohistochemistry in skin; type: in vivo, scid mice; conditions: 20 mg/ml in 0.1 ml acetone topically; between 1 and 4 hours, reappears after 24 hours
Procedure: Skin biopsies were taken and immunohistochemistry for AKT was performed on the sections. […] Staining was measured by quantitative immunohistochemistry with correction for non-specific background staining (p<0.05). Phospho-Ser^473-AKT was not detectable in dermal layer. FIG. 15C summarizes the effects of compound over a 24 hour period as determined by Western blot analysis performed as described above.

AKT PH domain = AKT PH domain (Homo sapiens (Human), UniProt P31749); experiment: SPR spectroscopy direct binding (Biacore 2000); conditions: purified AKT PH domain, SPR (Biacore 2000); NB = not binding
AKT PH domain, sequence (P31749 5-108): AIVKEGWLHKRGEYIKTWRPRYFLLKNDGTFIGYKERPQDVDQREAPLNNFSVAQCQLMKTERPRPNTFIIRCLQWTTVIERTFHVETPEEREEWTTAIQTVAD
Procedure: as §4

[15] = tested on: phospho-Ser473-AKT in Panc-1 cells; experiment: Cellular AKT inhibition, Western blot phospho-Ser473-AKT, Panc-1 cells; conditions: Homo sapiens, PANC-1, read-out: pAKT inhibition (IC50)
[16] = tested on: phospho-Ser473-AKT in MiaPaCa-2 cells; experiment: Cellular AKT inhibition, Western blot phospho-Ser473-AKT, MiaPaCa-2 cells; conditions: Homo sapiens, MIA PaCa-2, read-out: pAKT inhibition (IC50)

Compound: CC1=NN(C(=O)c2ccc(Cl)cc2)C(=O)C1/N=N/c1ccc(S(=O)(=O)Nc2ncccn2)cc1 (centres unmarked) [Compound 316, (E)-4-((1-(4-chlorobenzoyl)-3-methyl-5-oxo-4,5-dihydro-1H-pyrazol-4-yl)diazenyl)-N-(pyrimidin-2-yl)benzenesulfonamide]
IC50 [1]: 13 µM | IC50 [2]: 4 µM | antitumor activity [3]: no activity | tumor phospho-Ser-AKT ([4]; 4 hours after a single 250 mg/kg dose): inhibition of tumor phospho-Ser-AKT was observed | tumor phospho-Ser-AKT ([4]; 24 hours after a single 250 mg/kg dose): appears to lost | toxicity, repeated dose (Toxicity of compound 316; five daily doses of 250 mg/kg i.p.): moderate neutropenia but no other sign of toxicity | toxicity, single dose (Toxicity of compound 316; single dose of up to 250 mg/kg, preliminary studies): no toxicity | elimination ([5]; 250 mg/kg): eliminated relatively rapidly over about a 24 hr period | peak plasma concentration ([5]; single dose 250 mg/kg i.p.): 1.4 µM | peak plasma concentration ([5]; single dose 250 mg/kg oral): 0.6 µM

Compound: CCCCc1ccc(S(=O)(=O)Nc2nncs2)cc1 [Compound 155, 4-Butyl-N-(1,3,4-thiadiazol-2-yl)benzenesulfonamide]
antitumor activity [8]: inactive

Compound: CCCCCCCCCCCCc1ccc(S(=O)(=O)Nc2nncs2)cc1 [Compound 104, 4-Dodecyl-N-(1,3,4-thiadiazol-2-yl)benzenesulfonamide]
GSK3β and p70S6K phosphorylation [9]: inhibited in a dose-dependent manner | Apoptosis at 20 μmol/L [10]: 40.0 ± 2.9/ % | Apoptosis at 20 μmol/L [11]: 31.3 ± 1.6% | plasma concentration [12]: a peak corresponding to compound 104 was detected in the plasma | toxicity [13]: not toxic | Growth rate mm^3/10 days (BxPC-3 pancreatic cancer; 100 mg/kg BID × 10 D): 181 ± 52 mm^3/10 days | T/C % (BxPC-3 pancreatic cancer; 100 mg/kg BID × 10 D): 64.8% | Growth rate mm^3/10 days (BxPC-3 pancreatic cancer; 125 mg/kg BID × 5 D): 67 ± 35 mm^3/10 days | T/C % (BxPC-3 pancreatic cancer; 125 mg/kg BID × 5 D): 29.4% | Growth rate mm^3/10 days (BxPC-3 pancreatic cancer; 200 mg/kg BID × 10 D): 77 ± 44 mm^3/10 days | T/C % (BxPC-3 pancreatic cancer; 200 mg/kg BID × 10 D): 27.6% | Growth rate mm^3/10 days (BxPC-3 pancreatic cancer; 250 mg/kg BID × 5 D): 46 ± 53 mm^3/10 days | T/C % (BxPC-3 pancreatic cancer; 250 mg/kg BID × 5 D): 20.1% | Growth rate mm^3/10 days (PC3 prostate cancer): 470 ± 121 mm^3/10 days | T/C % (PC3 prostate cancer): 60.3% | Growth rate mm^3/10 days (SKOV-3 ovarian cancer): 122 ± 16 mm^3/10 days | T/C % (SKOV-3 ovarian cancer): 28.3% | Growth rate mm^3/10 days (A549 nsc lung cancer): 182 ± 47 mm^3/10 days | T/C % (A549 nsc lung cancer): 44.1% | Growth rate mm^3/10 days (MCF-7 breast cancer; 100 mg/kg BID × 10 D): 383 ± 139 mm^3/10 days | T/C % (MCF-7 breast cancer; 100 mg/kg BID × 10 D): 93.4% | Growth rate mm^3/10 days (MCF-7 breast cancer; 200 mg/kg BID × 10 D): 156 ± 30 mm^3/10 days | T/C % (MCF-7 breast cancer; 200 mg/kg BID × 10 D): 38.0% | apoptosis (HaCaT cells): 80% | apoptosis (HaCat-II,4 cells): 60% | Total Akt staining in skin [14]: decreased significantly overtime

Compound: CC(=O)Nc1ccc(S(=O)(=O)Nc2nncs2)cc1 [Compound 102, N-(4-(N-1,3,4-Thiadiazol-2-ylsulfamoyl)phenyl)acetamide]
KD (AKT PH domain): did not appear to bind directly | Apoptosis at 20 μmol/L [10]: 6.8 ± 0.9/ % | Apoptosis at 20 μmol/L [11]: 10.3 ± 2.1% | IC50 [15]: > 50 µM | IC50 [16]: > 50 µM

Continued, in another order:

IC50 [1]: > 20 µM | Kd (PH domain of PDK1): 3.57 µM | Metabolic half life (HT-29 cells [7]): 1.52 h | Solubility (Solubility): 28.6 µM (≈ 14.9 µg/mL)
Compound: CC1=NN(C(=O)c2ccc(C(C)(C)C)cc2)C(=O)C1/N=N/c1ccc(S(=O)(=O)Nc2ncccn2)cc1 (centres unmarked) [Compound 332]
IC50 [2]: > 20 µM | IC50 (HT-29 cells [6]): 25 µM

IC50 [1]: > 20 µM | Kd (IRS1 PH domain): 0.14 ± 0.02 µM | Metabolic half life (HT-29 cells [7]): >8 h | stability under cell culture conditions (HT-29 cells [7]; over the time period studied): did not appear to breakdown | Solubility (Solubility): 12.9 µM (≈ 6.17 µg/mL)
Compound: CC1=NN(C(=O)c2ccc(N)cc2)C(=O)C1/N=N/c1ccc(S(=O)(=O)Nc2ncccn2)cc1 (centres unmarked) [Compound 333]

IC50 [1]: > 20 µM | Kd (PH domain of PDK1): 0.42 µM | Kd (IRS1 PH domain): 1.74 ± 0.41 µM | Metabolic half life (HT-29 cells [7]): 2.3 h | Solubility (Solubility): 13.1 µM (≈ 6.28 µg/mL)
Compound: CC1=NN(C(=O)c2ccc(O)cc2)C(=O)C1/N=N/c1ccc(S(=O)(=O)Nc2ncccn2)cc1 (centres unmarked) [Compound 360]
IC50 [2]: 5 µM
